The values below come from ChEMBL document CHEMBL4706599, “Discovery of novel quinazoline derivatives as potent PI3Kδ inhibitors with high selectivity” (Eur J Med Chem, 2020).

A word on the IC50: it is the concentration that gives 50% inhibition. What is called inhibition is the change of the read-out against control, counted positive when it falls.

Data set [1] addresses T1, Phosphatidylinositol 4,5-bisphosphate 3-kinase catalytic subunit delta isoform (Homo sapiens, UniProt O00329).
T1 sequence (O00329 whole entry): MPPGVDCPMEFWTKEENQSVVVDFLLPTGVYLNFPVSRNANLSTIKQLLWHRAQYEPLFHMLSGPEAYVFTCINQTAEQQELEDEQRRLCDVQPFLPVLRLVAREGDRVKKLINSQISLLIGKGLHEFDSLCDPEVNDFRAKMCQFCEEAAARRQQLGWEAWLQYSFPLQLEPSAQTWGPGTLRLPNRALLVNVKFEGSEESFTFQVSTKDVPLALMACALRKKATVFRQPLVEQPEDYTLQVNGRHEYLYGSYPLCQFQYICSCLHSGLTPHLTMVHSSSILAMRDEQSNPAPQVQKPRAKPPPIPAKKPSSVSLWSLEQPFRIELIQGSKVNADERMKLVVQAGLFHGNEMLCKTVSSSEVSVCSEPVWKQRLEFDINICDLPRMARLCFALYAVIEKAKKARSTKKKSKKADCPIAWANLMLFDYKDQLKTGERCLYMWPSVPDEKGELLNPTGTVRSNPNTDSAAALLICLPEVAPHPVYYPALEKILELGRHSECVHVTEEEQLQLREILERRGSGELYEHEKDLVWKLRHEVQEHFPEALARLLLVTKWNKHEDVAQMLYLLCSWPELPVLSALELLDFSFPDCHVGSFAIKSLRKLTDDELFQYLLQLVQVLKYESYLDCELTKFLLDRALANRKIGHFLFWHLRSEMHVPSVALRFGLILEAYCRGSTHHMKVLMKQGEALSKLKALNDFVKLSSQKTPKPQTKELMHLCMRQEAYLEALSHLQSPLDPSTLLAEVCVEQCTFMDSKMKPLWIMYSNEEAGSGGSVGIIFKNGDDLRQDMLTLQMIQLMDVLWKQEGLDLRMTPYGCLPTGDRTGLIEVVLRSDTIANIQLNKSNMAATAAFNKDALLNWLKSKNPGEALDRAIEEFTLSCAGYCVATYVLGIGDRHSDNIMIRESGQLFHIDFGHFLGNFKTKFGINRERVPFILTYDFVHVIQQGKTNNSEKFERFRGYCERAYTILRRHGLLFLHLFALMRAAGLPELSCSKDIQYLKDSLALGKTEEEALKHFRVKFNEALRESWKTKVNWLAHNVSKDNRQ
The data set is described as follows: Inhibition of PI3Kdelta (unknown origin) by ADP-Glo kinase assay. Background: ADP-Glo turns the ADP formed in a reaction into a luminescent signal.

Data set [2] has as its system Ramos. The data set is described as follows: Antiproliferative activity against human Ramos cells assessed as inhibition of cell growth after 48 hrs by MTT assay. It counts as functional, cell-based.
The target of data set [3] is T2, Phosphatidylinositol 4,5-bisphosphate 3-kinase catalytic subunit delta isoform (Homo sapiens) (UniProt O00329).
T2 sequence (whole entry): T1 sequence (O00329 whole entry)
The experiment in a line: Inhibition of PI3Kdelta (unknown origin) at 200 nM by ADP-Glo kinase assay relative to control.

The test system of data set [4] is Raji. The experiment in a line: Antiproliferative activity against human Raji cells assessed as inhibition of cell growth after 48 hrs by MTT assay. It counts as functional, cell-based. (Tetrazolium dyes change colour on reduction, which living cells bring about.)
Data set [5] concerns Raji. The experiment in a line: Induction of apoptosis in human Raji cells assessed as late apoptotic cells at 5 uM measured after 24 hrs by Annexin V-FITC/PI staining based flow cytometry (reference value: 2.11 %). In kind it is functional.
For data set [6], the species on record is Homo sapiens. The experiment in a line: Selectivity index, ratio of IC50 for PI3Kbeta (unknown origin) to IC50 for PI3Kdelta (unknown origin).
In data set [7] the test system is Raji. The experiment in a line: Antiproliferative activity against human Raji cells assessed as reduction in cell viability at 10 uM after 24 hrs by MTT assay. It counts as functional.
Data set [8] concerns the target Phosphatidylinositol 4,5-bisphosphate 3-kinase catalytic subunit beta isoform (Homo sapiens, UniProt P42338). The experiment in a line: Inhibition of PI3Kbeta (unknown origin).
Data set [9] relates to Raji. The experiment in a line: Antiproliferative activity against human Raji cells assessed as reduction in cell viability after 24 hrs by MTT assay. As to conditions: dose 0.2-15 µM. In kind it is functional, cell-based.
Data set [10] relates to Raji. The experiment in a line: Antiproliferative activity against human Raji cells assessed as reduction in cell viability at 10 uM by MTT assay. As to conditions: TDE = time-dependent effect. In kind it is functional, cell-based.
A short description of data set [11]: Metabolic stability in rat liver microsomes assessed as compound remaining at 1 uM measured up to 45 mins in presence of NADPH by LC/MS analysis. It counts as ADME, Microsome. As to conditions: 0.75 h.
For data set [12], the target named is Phosphatidylinositol 4,5-bisphosphate 3-kinase catalytic subunit alpha isoform (Homo sapiens, UniProt P42336). The data set is described as follows: Inhibition of PI3Kalpha (unknown origin).
Chain of Phosphatidylinositol 4,5-bisphosphate 3-kinase catalytic subunit alpha isoform (P42336 whole entry, canonical isoform): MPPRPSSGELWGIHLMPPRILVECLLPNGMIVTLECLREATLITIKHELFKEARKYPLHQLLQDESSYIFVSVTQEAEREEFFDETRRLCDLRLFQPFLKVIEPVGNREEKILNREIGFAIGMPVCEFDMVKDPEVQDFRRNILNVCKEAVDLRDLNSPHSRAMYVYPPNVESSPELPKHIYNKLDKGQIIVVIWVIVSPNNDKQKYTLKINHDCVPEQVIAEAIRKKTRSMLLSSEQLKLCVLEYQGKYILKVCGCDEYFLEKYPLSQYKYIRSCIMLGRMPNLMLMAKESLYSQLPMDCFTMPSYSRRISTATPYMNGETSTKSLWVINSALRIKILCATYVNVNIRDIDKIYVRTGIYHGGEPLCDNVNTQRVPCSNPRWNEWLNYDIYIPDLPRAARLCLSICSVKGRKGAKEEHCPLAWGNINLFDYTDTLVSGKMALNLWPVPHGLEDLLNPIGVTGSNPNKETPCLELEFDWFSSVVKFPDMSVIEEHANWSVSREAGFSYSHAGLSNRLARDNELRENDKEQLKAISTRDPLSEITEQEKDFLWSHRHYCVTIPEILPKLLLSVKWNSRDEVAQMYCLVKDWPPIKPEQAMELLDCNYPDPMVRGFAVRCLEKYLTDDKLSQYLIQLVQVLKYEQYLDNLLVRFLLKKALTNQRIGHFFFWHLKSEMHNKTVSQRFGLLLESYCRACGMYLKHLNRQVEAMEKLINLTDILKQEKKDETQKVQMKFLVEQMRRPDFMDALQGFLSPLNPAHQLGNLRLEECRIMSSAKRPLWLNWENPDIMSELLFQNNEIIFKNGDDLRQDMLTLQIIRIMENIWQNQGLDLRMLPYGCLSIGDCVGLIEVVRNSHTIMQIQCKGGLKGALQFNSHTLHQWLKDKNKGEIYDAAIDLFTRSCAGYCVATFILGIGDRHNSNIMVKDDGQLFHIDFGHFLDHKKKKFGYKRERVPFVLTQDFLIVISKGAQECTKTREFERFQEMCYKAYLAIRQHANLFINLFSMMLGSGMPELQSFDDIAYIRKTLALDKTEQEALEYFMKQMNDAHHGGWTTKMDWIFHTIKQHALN
The subject of data set [13] is Raji. The data set is described as follows: Inhibition of PI3K/Akt signalling pathway in human Raji cells assessed as reduction in Akt phosphorylation at Ser473 residue after 24 hrs by Western blot analysis. As to conditions: dose 1-1000 nM. In kind it is cell-based.
Data set [14] can be described thus: Metabolic stability in human liver microsomes assessed as compound remaining at 1 uM measured up to 45 mins in presence of NADPH by LC/MS analysis. It counts as ADME, Microsome. As to conditions: 0.75 h. On the technique in general: Microsomes from liver hold many membrane-bound enzymes, among them those of drug oxidation.
Data set [15] is filed under the species Homo sapiens. The data set is described as follows: Selectivity index, ratio of IC50 for PI3Kgamma (unknown origin) to IC50 for PI3Kdelta (unknown origin).
The species entered for data set [16] is Homo sapiens. The data set is described as follows: Selectivity index, ratio of IC50 for PI3Kalpha (unknown origin) to IC50 for PI3Kdelta (unknown origin).
Data set [17] addresses Phosphatidylinositol 4,5-bisphosphate 3-kinase catalytic subunit gamma isoform (Homo sapiens, UniProt P48736). The experiment in a line: Inhibition of PI3Kgamma (unknown origin).

Chain of Phosphatidylinositol 4,5-bisphosphate 3-kinase catalytic subunit beta isoform (P42338 whole entry, canonical isoform): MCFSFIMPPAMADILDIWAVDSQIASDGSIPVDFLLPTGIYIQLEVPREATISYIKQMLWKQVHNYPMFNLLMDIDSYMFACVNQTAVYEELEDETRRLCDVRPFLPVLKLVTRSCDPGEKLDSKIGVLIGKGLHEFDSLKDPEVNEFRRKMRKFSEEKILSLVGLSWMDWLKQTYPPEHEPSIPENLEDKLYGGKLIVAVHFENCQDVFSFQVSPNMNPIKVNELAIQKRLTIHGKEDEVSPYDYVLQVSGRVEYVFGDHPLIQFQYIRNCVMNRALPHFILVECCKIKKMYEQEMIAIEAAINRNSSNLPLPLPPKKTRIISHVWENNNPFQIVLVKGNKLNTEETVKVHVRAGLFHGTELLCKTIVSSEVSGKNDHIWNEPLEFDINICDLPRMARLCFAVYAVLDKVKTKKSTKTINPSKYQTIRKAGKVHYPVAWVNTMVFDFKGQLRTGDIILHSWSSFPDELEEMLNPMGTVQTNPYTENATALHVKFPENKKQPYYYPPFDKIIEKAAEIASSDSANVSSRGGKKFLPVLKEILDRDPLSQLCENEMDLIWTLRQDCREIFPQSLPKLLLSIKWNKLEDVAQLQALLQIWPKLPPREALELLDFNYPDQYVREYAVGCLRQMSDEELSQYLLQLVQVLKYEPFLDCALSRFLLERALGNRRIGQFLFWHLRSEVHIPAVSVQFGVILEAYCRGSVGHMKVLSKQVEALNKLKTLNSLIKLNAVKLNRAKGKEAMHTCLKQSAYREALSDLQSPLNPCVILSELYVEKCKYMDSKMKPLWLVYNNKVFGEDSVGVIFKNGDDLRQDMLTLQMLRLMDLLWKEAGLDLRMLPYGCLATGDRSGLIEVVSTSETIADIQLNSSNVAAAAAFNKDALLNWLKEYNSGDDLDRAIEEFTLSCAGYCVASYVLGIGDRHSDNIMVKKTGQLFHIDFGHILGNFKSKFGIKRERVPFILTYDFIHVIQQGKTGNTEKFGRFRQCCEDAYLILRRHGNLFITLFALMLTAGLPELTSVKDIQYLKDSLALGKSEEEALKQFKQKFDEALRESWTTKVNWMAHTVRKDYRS
Chain of Phosphatidylinositol 4,5-bisphosphate 3-kinase catalytic subunit gamma isoform (P48736 whole entry, canonical isoform): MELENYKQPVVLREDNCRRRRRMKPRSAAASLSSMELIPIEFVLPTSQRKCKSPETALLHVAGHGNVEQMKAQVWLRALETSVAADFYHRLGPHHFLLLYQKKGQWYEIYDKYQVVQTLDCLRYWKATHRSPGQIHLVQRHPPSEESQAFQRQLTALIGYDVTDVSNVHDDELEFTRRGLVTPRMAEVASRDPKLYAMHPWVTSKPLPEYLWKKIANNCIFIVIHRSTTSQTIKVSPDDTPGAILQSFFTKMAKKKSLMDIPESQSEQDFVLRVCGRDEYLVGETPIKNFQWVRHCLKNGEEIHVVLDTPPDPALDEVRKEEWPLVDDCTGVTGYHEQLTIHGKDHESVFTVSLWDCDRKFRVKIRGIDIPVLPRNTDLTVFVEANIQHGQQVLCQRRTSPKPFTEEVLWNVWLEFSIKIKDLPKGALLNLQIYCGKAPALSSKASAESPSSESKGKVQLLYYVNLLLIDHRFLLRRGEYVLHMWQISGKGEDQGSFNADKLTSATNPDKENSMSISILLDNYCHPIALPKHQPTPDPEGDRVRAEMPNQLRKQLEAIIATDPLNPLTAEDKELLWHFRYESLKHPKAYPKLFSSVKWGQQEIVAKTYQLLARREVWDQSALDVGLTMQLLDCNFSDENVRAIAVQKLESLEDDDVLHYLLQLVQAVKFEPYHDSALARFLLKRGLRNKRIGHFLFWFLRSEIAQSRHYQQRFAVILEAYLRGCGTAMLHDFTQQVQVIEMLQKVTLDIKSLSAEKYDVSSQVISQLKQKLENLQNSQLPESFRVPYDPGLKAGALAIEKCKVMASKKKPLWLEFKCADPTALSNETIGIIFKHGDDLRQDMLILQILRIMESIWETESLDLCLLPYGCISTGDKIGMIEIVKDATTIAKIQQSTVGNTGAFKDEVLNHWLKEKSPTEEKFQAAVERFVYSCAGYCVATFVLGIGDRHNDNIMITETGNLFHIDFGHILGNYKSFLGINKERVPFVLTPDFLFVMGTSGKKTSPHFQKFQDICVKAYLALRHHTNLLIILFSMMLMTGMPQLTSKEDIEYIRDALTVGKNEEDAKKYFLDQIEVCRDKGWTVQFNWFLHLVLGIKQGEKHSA

Turning to `CC#CC(=O)Nc1cccc(Nc2ncnc3ccc(-c4cnc5ccccc5c4)cc23)c1`, the IC50 is 410 nM in data set [1] and greater than 50 µM in data set [2].

`C=CC(=O)Nc1cccc(Oc2ncnc3ccc(-c4cnc5ccccc5c4)cc23)c1` came in with an inhibition in data set [3] of 29.5%. For the same compound, the IC50 was 8.6 µM in data set [4] and 10.6 µM in [2].

Take `CCC(=O)Nc1cccc(Nc2ncnc3ccc(-c4cnc5ccccc5c4)cc23)c1`: the IC50 in data set [1] stood at 21 nM.

In data set [3], `Cn1c(=O)n(-c2ccc(C(C)(C)C#N)cc2)c2c3cc(-c4cnc5ccccc5c4)ccc3ncc21` [DACTOLISIB] came in with an inhibition of 66.3%. In addition, the IC50 in [4] amounted to 0.3 µM; in [2] it was 0.6 µM. The Activity in [5] amounted to 10.24%.

`C=CC(=O)Nc1cccc(Oc2ncnc3ccc(-c4ccc(F)nc4)cc23)c1` registered an inhibition in data set [3] of 23.4%. Further, the IC50 in [4] and in data set [2] was 11 µM each time.

The compound `C=CC(=O)Nc1cccc(Nc2ncnc3ccc(-c4ccc(Cl)nc4)cc23)c1` displayed an inhibition in data set [3] of 64.6%. The IC50 was 11.6 µM in data set [4] and 104 nM in data set [1].

`C=CC(=O)Nc1cccc(Oc2ncnc3ccc(-c4cccnc4)cc23)c1` yielded an inhibition in [3] of 41.8%. Moreover, the IC50 in data set [4] was 14.8 µM; in [2] it was 9.4 µM.

Consider `C/C=C/C(=O)Nc1cccc(Nc2ncnc3ccc(-c4cnc5ccccc5c4)cc23)c1`, for which the IC50 in data set [4] came to 2.7 µM; in [1] it was 129 nM; in data set [2], 5 µM.

`C=CC(=O)Nc1cccc(Oc2ncnc3ccc(-c4ccc(Cl)nc4)cc23)c1` returned an inhibition in data set [3] of 33.1%. Besides, the IC50 in data set [2] is 10.1 µM.

As for `C=CC(=O)Nc1cc(Nc2ncnc3ccc(-c4cnc5ccccc5c4)cc23)ccc1C`, the Ratio IC50 came to 300 in data set [6], 45 in data set [15] and 20 in [16]. Besides, the Activity is greater than 50% in [7], “Dose-dependent effect” in data set [9], “Tde” in data set [10] and 10.78% in [5]. The IC50 in data set [8] stood at 19.6 µM; in data set [4] it was 8.5 µM; in data set [1], 27.5 nM; in data set [12] it was 561 nM; in data set [2] it was 5.4 µM; in data set [17], 1250 nM. Besides, the Stabilty result in [11] and in data set [14] was “Unstable” throughout. Also, the inhibition result in data set [13] is “Dose-dependent effect”.

`C=CC(=O)Nc1cccc(Nc2ncnc3ccc(-c4ccc(F)nc4)cc23)c1` returned an inhibition in data set [3] of 46.6%. In data set [4], the IC50 is greater than 50 µM.

In the case of `C=CC(=O)Nc1cccc(Nc2ncnc3ccc(-c4cnc5ccccc5c4)cc23)c1`, the IC50 in data set [4] is 3.5 µM; in [1], 117 nM; in data set [2], greater than 50 µM.

Regarding `C=CC(=O)N1CCc2ccc(Nc3ncnc4ccc(-c5cnc6ccccc6c5)cc34)cc21`, the IC50 in [4] came out at 0.9 µM; in [1] it was 495 nM; in data set [2] it was 17 µM.
